# Tests used:
# [1] = system: Corynebacterium glutamicum; test: Growth (OD600) in shake flask cultures supplemented with toxic substances; assay type: cell-based, Corynebacterium glutamicum DSM 20300 (=ATCC 13032); details: 3 g/L, pH 7 (MOPS), 25 h
# Description: (§1) Several strains commonly used industrial biotechnology were investigated regarding their natural tolerance towards oAB and to organic solvents in question for later product extraction (e.g. 1-dodecanol or octanol). Furthermore, the influence of the used pH value was investigated. It was known from previous experiments that at least for E. coli the toxicity of aromatic compounds depends strongly on the pH value, probably because protonated acids can much more efficiently penetrate the cell membrane and accordingly their toxicity rises severely. The extraction of oAB in an organic phase is supposed to work best at low pH values, close to the isoelectric point of oAB. The most relevant host strains considered were: Escherichia coli K12, Corynebacterium glutamicum DSM 20300 (=ATCC 13032), Pseudomonas putida KT2440, Bacillus subtilis subsp. 168, Saccharomyces cerevisiae DSM 70449, and Pichia pastoris X33 (DSM 70382).
# (§2) To investigate the chosen strains towards the mentioned characteristics shake flasks and small scale fermentation experiments were performed and the organisms were supplemented with the toxic substances (aminobenzoates, solvents) at differed concentrations, different pH values, and the behaviour of the strains was studied. […]
# P. putida = test: Shake flask growth (OD600) with supplementation of toxic substances; assay type: cell-based, Pseudomonas putida KT2440; details: after octanol addition, pH 7, shake flask
# Description: as §1, §2
# [2] = cited from earlier work
# all organisms = test: Toxicity of the extraction solvent octanol, shake flask growth; assay type: cell-based; details: 0.1 g/L and 3 g/L octanol
# Description: as §1, §2
# [3] = target: T1, E. coli TrpEG (anthranilate synthase) variant TrpEGS40R, mutation S40R (SEQ ID NO: 52; SEQ ID No. 50-51) (Escherichia coli, UniProt P00895); test: Anthranilate synthase activity in cell lysate of C. glutamicum ΔtrpD/pEKEx2-trpEG^S40R (KM and vmax); assay type: biochemical; details: raw extract (cell lysate), 25 °C, 20 mM L-glutamine, 10 mM MgCl2
# T1 construct: S40R lies in TrpE
# Description: In more specific embodiments of the recombinant microbial host cell of invention, the Corynebacterium glutamicum microbial host cell, preferably Corynebacterium glutamicum ATCC 13032, can further overexpress one or more of the genes selected from the group consisting of galP (SEQ ID NO: 30), iolT2 (SEQ ID NO: 31), ppgk (SEQ ID NO: 32), pps (SEQ ID NO: 33-35), ppk (SEQ ID NO: 36), zwfl (SEQ ID NO: 37), opcA (SEQ ID NO: 38-39), tktCg (SEQ ID NO: 40), tktEc (SEQ ID NO: 41), talCg (SEQ ID NO: 42), tame (SEQ ID NO: 43), a gene encoding TrpEGS38F (trpEG^S38F, SEQ ID NO: 50), a gene encoding TrpEGS38R (trpEG^S38R, SEQ ID NO: 51), a gene encoding TrpEGS40R (trpEG^S40R, SEQ ID NO: 52), a gene encoding TrpEGS40F (trpEG^S40F, SEQ ID NO: 53), the gene encoding AroGD146N (aroG^D146N, SEQ ID NO: 55), aroL of Escherichia coli LJ110 (SEQ ID NO: 93), aroK (SEQ ID NO: 94), glnA (SEQ ID NO: 95), and qsuA (SEQ ID NO: 96). […]
# E. coli = test: Shake flask growth (OD600) with supplementation of toxic substances; assay type: cell-based, Escherichia coli K12; details: 3 g/L pAB, pH 7, shake flask
# Description: as §1, §2
compound,measurement,setting,value
"Nc1ccccc1C(=O)O [oAB, o-aminobenzoate]",growth inhibition,[1],growth was not inhibited
CCCCCCCCO [octanol],growth (OD600),P. putida,minor growth activity
same,solubility in water,[2]; octanol,about 0.1 g/L
same,growth (OD600),all organisms,unable to grow
CCCCCCCCCCCCO [1-dodecanol],miscibility in water,[2]; 1-dodecanol,0.004 g/L
C=C(O[C@@H]1C=C(C(=O)O)C=C[C@H]1O)C(=O)O [chorismate],Vmax,[3],317.9 mU/mg
"Nc1ccc(C(=O)O)cc1 [pAB, 4-aminobenzoate, reference compound]",growth (OD600),E. coli,not inhibited

# Source: US10731187B2, “Recombinant strain producing O-aminobenzoate and fermentative production of aniline from renewable resources via 2-aminobenzoic acid” (Covestro Deutschland AG, priority 2014, dated 2020)
